From article PMC12285266, “Function and regulation of pob genes for 4-hydroxybenzoate catabolism in Agrobacterium tumefaciens” (Applied and Environmental Microbiology, 2025) come the findings set out here.

The target of data set [1] is T1, PobA (Atu4544), GST-atu4544 (Agrobacterium fabrum, UniProt Q7CV80).
T1 construct: full ORF (1,173 bp) in pGEX-4T-1, N-terminal GST tag kept, E. coli BL21(DE3), about 70 kDa with tag
Put plainly: HPLC of substrate consumption and protocatechuate formation. The following applies: NADPH or NADH 0.4 mM, FAD 5 uM, 0.5 mM substrate, 50 mM Tris-Cl pH 7.4, 30 C; GST-tagged enzyme. The data set is classed as biochemical.

Data set [2] deals with T2, PobR (Atu4545), HIS-atu4545 (Agrobacterium fabrum, UniProt Q7CV81).
T2 construct: full ORF (924 bp) in pET30a, N-terminal His tag kept, E. coli BL21(DE3)
T2 sequence (Q7CV81 1-307): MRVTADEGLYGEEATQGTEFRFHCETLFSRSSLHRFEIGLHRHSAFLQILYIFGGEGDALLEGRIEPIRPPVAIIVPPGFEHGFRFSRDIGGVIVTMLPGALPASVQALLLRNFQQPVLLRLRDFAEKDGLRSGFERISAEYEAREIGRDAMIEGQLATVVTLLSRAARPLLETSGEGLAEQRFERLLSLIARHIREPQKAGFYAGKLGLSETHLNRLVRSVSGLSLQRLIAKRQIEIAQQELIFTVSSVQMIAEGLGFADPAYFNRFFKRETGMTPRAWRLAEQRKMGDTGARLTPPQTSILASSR
Put plainly: EMSA, effect on PobR/DNA complex formation. The format is binding. The following applies: FAM-labelled atu4544-atu4545 intergenic DNA; varying concentrations; pH 8.0, 25 C.

The target in data set [3] is T3, PobR (HIS-atu4545) (Agrobacterium tumefaciens C58) (UniProt Q7CV81).
T3 sequence: T2 sequence (Q7CV81 1-307)
Put plainly: competition. The following applies: EMSA: per 50 mL binding buffer 0.394 g Tris-base, 0.186 g KCl, 0.019 g EDTA-2Na, 10% glycerol, 0.008 g DTT (about 65 mM Tris, 50 mM KCl, 1 mM EDTA, 1 mM DTT) …. On the technique in general: A gel shift assay detects complexes by their altered migration in electrophoresis.

T1 sequence (Q7CV80 1-390): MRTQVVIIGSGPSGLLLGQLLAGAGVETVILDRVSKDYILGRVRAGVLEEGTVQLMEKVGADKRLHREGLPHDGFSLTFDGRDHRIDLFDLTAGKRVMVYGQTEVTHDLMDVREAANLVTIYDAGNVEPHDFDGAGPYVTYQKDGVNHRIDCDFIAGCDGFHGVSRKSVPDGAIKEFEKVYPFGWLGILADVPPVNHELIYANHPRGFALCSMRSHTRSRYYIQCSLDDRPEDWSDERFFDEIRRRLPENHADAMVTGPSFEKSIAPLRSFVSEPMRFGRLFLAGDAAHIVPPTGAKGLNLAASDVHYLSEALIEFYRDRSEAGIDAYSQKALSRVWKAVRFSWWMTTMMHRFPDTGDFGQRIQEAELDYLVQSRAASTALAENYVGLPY

With `O=C(O)c1ccc(O)cc1` [4-hydroxybenzoate], in data set [1], the “HPLC of substrate consumption and protocatechuate formation” value was “Atu4544 (PobA) catalyzed the hydroxylation of 4-hydroxybenzoate to produce protocatechuate”. For `O=C(O)CCCCC(=O)O` [adipic acid], in data set [2], the “EMSA, effect on PobR/DNA complex formation” value is “The increased adipic acid seemed to hinder the binding of the PobR/DNA probe”. Take “CATCGTGACGATCACTCCACCGATATCGCGTGAAAAGCGGAAGCCATGTTCGAAACCCGGTGGCACGATGATGGCGACCGGCGGGCGGATCGGCTCGATGCGGCCTTCCAGCAACGCATCGATCGTCGACCTGCAGGCA (double strand) [unrelated DNA (pobR-inter)]”: the binding entry in data set [3] is “no binding”. Turning to “CATCTCACCATCACTCCTCCGTGCGATGGTCGGATTGTGCAATTTACAGACAGAAAAGTCCATTGAGCTTGTGGCCGGTCTTGGTCAATTTCTTGACCGGAGACAAGTTCGGGAGGACATCATCGTCGACCTGCAGGCA (double strand) [unlabeled intergenic competitor]”, in data set [3], the binding entry is on record as “binds”.
